Source: patent publication EP0407582A1, “DERIVATIVES OF TRICHLOROPHOSPHAS[…] INSECTICIDAL, VIRICIDAL, HEMATOCIDAL, FUNGICIDAL AND OVOCIDAL PREPARATIONS BASED ON THEM” (priority 1989, dated 1990)
Read-outs that look alike come from different tables or passages of the source.

Tests used:
[1] = test system: domestic flies; experiment: Insecticidal activity, laboratory test in gauze boxes; format: in vivo; conditions: 0.25% solution in 5% aqueous glucose solution; death rate estimated in 48 - 72 hours
Protocol: An insecticidal composition based thereon, which was a 0.25% solution of this compound in a 5% aqueous glucose solution, was prepared. The laboratory and large-scale tests of the activity of an insecticidal composition of the invention was conducted on domestic flies. for laboratory tests into the gauze-made boxes (10x10 cm, 6 boxes), there were placed 6-7-day flies of both sexes by 50 individuals per each box. Into 5 boxes there were placed Petri dishes containing the insecticidal composition of the invention. The death rate of flies was estimated-in 48 - 72 hours. A Petri dish containing a 5% aqueous solution of glucose was placed into the control box. The insecticidal activity of the composition, according to the invention, was tested in comparison with a known insecticidal composition containing 0,0-dimethyl-/1-hydroay-2,2-trichloroethyl/phosphonate.

[2] = test system: domestic flies; experiment: Insecticidal activity, large-scale test in living and industrial premises; format: in vivo; conditions: 0.25% solution with 5% glucose solution, 2-3 dishes per 20 m2; 72 hours
Protocol: The large-scale tests of the activity of the insecticidal composition, according to the invention, was conducted on domestic flies in living and industrial premises. Petri dishes containing a 0.25% aqueous solution of the insecticide, according to the invention, added with a 5% glucose solution, were put at a rate of 2-3 dishes per 20 m2. The .activity of the composition of the invention was estimated by a direct count of dead insects in 72 hours or by using the adhesive tapes, counting the number of flies on the tape prior and after carrying out the test.

[3] = test system: mice and rats; conditions: cited from earlier work
[4] = test system: invasion larvae of a root-knot nematode; experiment: Nematocidal activity, laboratory test; format: in vivo; conditions: Meloidogyne javanica; 1% solution in water; 24 hrs; read-out: Larva death, % Tests laboratory
Protocol: (§1) The process was carried out in manner similar to that described in Example 3. […] The insecticidal activity was tested in a manner similar to that described in Example 3. A nematocidal composition based on the compound.-was prepared which was its 1% solution in water. A nematocidal effect of the composition was tested in laboratory conditions to the invasion larvae of a root-knot nematode. For testing it, one drop of a suspension containing 100 invasion larvae of root-knot nematodes was placed onto the cover glasses having cells. Thereafter, one drop of the nematocidal composition of the invention was put thereto. One drop of distilled water instead of the test composition was placed into the control cell..The glasses with test and control cells were put on a moisten ashless filter of a Petri dish, and 24 hrs later the killed nematodes were registered. The tests were repeated three times. The nematocidal activity of the composition, according to the invention was tested in comparison with the known nematocidal preparation containing 0,0-dimethyl-0-2,2/dichlorovinyl/phosphate. The field tests were carried out at the 5 m^2 plots affected by tomato nematodes. For testing it, the plots were treated with the nematocidal composition of the invention and the known nematocidal composition.

[5] = test system: tomato nematodes; experiment: Nematocidal activity, field test on 5 m2 plots; format: in vivo; conditions: 1% solution in water, read-out: Larva death, % Tests field
Protocol: as §1

[6] = test system: hepatitis B virus; experiment: Virucidal activity, suspension method under protein loading, counter-current immunoelectrophoresis; conditions: concentration 1 %
[7] = test system: influenza A virus; experiment: microbe, parasite or virus in culture; design: species or system strain of influenza A1 virus; conditions: concentration 1 %
[8] = test system: poliomyelitis virus; experiment: microbe, parasite or virus in culture; format: cell-based, poliomyelitis-II virus; conditions: concentration 1 %
[9] = test system: pig ascarid ovigerms; experiment: Ovocidal activity on watch glasses, 2% solution; format: in vivo; conditions: concentration 2 %
Protocol: An ovocidal composition based on this compound was prepared in the form of a 2% solution thereof in distilled water. An ovocidal activity of the composition, according to the invention, was tested as follows.
A drop of a suspension containing at least 1.000 ascarid ovigerms was placed onto the watch glasses followed by adding thereto by 1 ml of the composition of the invention. Thereafter the watch glasses were put them into a humid chamber of a thermostat at a temperature of 24 - 26 °C. In every […] the watch glasses with ascarid ovigerms and with the composition of the invention were withdrawn from the thermostat and washed with distilled water for 2-3 times.
Then, the washed ascaride ovigerms were cultured for 30 days at a temperature of 24 - 26 °C. To determine the number of dead and viable ovigerms 200 ova were visualized under a microscope in every 3-5 days. Their death was determined by lack of the development of ovigerms up to the stage of larva and the.presence of destructive morphological changes for 30 days. An ovocidal activity of known composition based.on carbathion was determined by the same procedure. Control was carried out under the same conditions by adding a physiological saly solution. The death percentage of ova was estimated as a mean value of three results with the correction for death of ovigerms in the control and in comparison with the known compositions.

[10] = test system: leaves of tomatoes and cucumbers; experiment: Phytotoxicity of the nematocidal composition; format: in vivo; conditions: 1% solution in water
[11] = Solubility in water and organic solvents; format: physicochemical; conditions: qualitative, solvents named
[12] = test system: pig ascaride ovigerms; experiment: Ovocidal activity on watch glasses, 3% solution, laboratory test; format: in vivo; conditions: Sus scrofa, read-out: % Death of ovigerms Tests laboratory
Protocol: A drop of a suspension containing at least 1,000 ascarid ovigerms was placed onto watch glasses followed by adding one droplet of a 3% solution of the composition of the invention. Thereafter, they were put into a humid chamber of a thermostat at a temperature of 24-26 °C. In every 24 hours during 3 days the watch glasses with ascarid ova and the composition of the invention were withdrawn from the thermostat and washed with distilled water 2-3 times.
Then, the washed ascarid ovigerms were incubated for 30 days at a temperature of 24 - 26-°C. To determine the number of dead and viable ova, 200 ovigerms were observed by means of a microscope every 3 - 5 days. The death was determined by lack of ova development for 30 days up to the stage of a mobile larva and the presence of destructive morphological changes: shrinkage and deformation of embryos, rupture of shells. The known composition - carbathion was tested under the same conditions by adding a solvent. The percentage death of ova was estimated as a mean value of three results with a correction for ova death in the control and_in-comparison with the known composition.

[13] = test system: helminthic ova; experiment: Ovocidal activity, large-scale disinfection of ambient objects; conditions: 3% aqueous solution; ambient objects (equipment, tableware, hands); read-out: % Death of ovigerms Tests large-scale
Protocol: Based on this compound, there was prepared the ovocidal composition in the form of 3% solution thereof. The ovocidal activity of the composition, according to the invention, was tested disinfection of ambient objects (equipment, tableware, hands). For this purpose, a 3% aqueous solution of the compound, according to the invention, was used for treating said objects. The. efficiency of the ovocidal action was determined by the number of helminthic ova in washings from the ambient objects before and after treating them with the ovocidal composition of the invention.

[14] = 24 h, read-out: Death of ascarid ovigerms (%) in 24 h
[15] = 48 h, read-out: Death of ascarid ovigerms (%) in 48 h

| Molecule | Death of flies, % Tests laboratory [1] | Death of flies, % Tests large-scale [2] | killing at 1 % [4] | mortality at 1 % [5] | killing at 2 % [9, 14] | killing at 2 % [9, 15] | solubility [11] | killing at 3 % [12] | killing at 3 % [13] | further results |
| --- | --- | --- | --- | --- | --- | --- | --- | --- | --- | --- |
| 0,0-dimethyl(1-hydroxy-2,2,2-trichloroethyl) phosphonate [Known insecticidal composition] | 85% | 83% | – | – | – | – | – | – | – | LDSO [3]: 225 to 1200 mg/kg |
| O=C(N=P(OC(CCl)c1ccccc1)(OC(CCl)c1ccccc1)OC(CCl)c1ccccc1)c1ccccc1 (stereo not drawn) [Example 3, tris/2-chloro-1-phenylethoxy/phosphazobenzoyl] | 100% | 100% | 100% | 100% | 68.1% | 93.4% | soluble in water, alcohols, acetone, benzene, toluene | – | – | killing at 1 % ([6]; 0.25 h, 15 min, read-out: Death of viruses (%) under exposure, Hepatitis B, 15 min): 75%; killing at 1 % ([6]; 0.5 h, 30 min, read-out: Death of viruses (%) under exposure, Hepatitis B, 30 min): 100%; killing at 1 % ([6]; 1 h, 60 min, read-out: Death of viruses (%) under exposure, Hepatitis B, 60 min): 100%; killing at 1 % ([7]; 0.25 h, 15 min, read-out: Death of viruses (%) under exposure, Influenza A, 15 min): 30%; killing at 1 % ([7]; 0.5 h, 30 min, read-out: Death of viruses (%) under exposure, Influenza A, 30 min): 50%; killing at 1 % ([7]; 1 h, 60 min, read-out: Death of viruses (%) under exposure, Influenza A, 60 min): 100%; killing at 1 % ([8]; 10 min, 10 min, read-out: Death of viruses (%) under exposure, Poliomyelitis, 10 min): 20%; killing at 1 % ([8]; 0.5 h, 30 min, read-out: Death of viruses (%) under exposure, Poliomyelitis, 30 min): 50%; killing at 1 % ([8]; 1 h, 60 min, read-out: Death of viruses (%) under exposure, Poliomyelitis, 60 min): 70%; killing at 2 % ([9]; 72 h, read-out: Death of ascarid ovigerms (%) in 72 h): 100%; phytotoxic effects on the leaves of tomatoes and cucumbers [10]: no phytotoxic effects |
| O=C(N[C@H](COP(=NC(=O)C(Cl)(Cl)Cl)(OC[C@@H](NC(=O)C(Cl)Cl)[C@H](O)c1ccc([N+](=O)[O-])cc1)OC[C@@H](NC(=O)C(Cl)Cl)[C@H](O)c1ccc([N+](=O)[O-])cc1)[C@H](O)c1ccc([N+](=O)[O-])cc1)C(Cl)Cl [Example 7, d(-)--threo-3-para-nitrophenyl-2-dichloroacetamido-3-hydroxypro-poxyphosphazotrichloroacetyl] | – | – | – | – | – | – | soluble.in water, alcohols, acetone,--benzene, toluene | 100% | 98% | – |
| CNC(=S)S [carbathion, sodium N-methyldithiocarbamate dihydrate] | – | – | – | – | 60% | 80% | – | 60% | 59% | – |
| COP(=O)(OC)OC=C(Cl)Cl [Known nematocidal preparation, 0,0-dimethyl-0-/2,2-dichlorovinyl/phosphate] | – | – | 88.1% | 76% | – | – | – | – | – | – |
